Assay results as given in patent publication US10752609B2, “GSK-3 inhibitors” (priority 2016, dated 2020).
Read-outs that look alike come from different tables or passages of the source.

Key:
pTau = pTau assay (no method described); assay type: cell-based
GSK3α = GSK3α (Homo sapiens, UniProt P49840); assay: GSK3α kinase assay (Caliper LabChip3000 mobility shift, fluoresceinated peptide substrate)
Protocol: The kinase assay was performed in V-bottom 384-well plates. […] The reaction was incubated at room temperature for 20 hours and terminated by adding 45 μl of 35 mM EDTA to each sample. The reaction mixture was analyzed on the Caliper LabChip3000 (Caliper, Hopkinton, Mass.) by electrophoretic separation of the unphosphorylated substrate and phosphorylated product. […] Compounds were dissolved at 10 mM in dimethylsulfoxide (DMSO) and evaluated at eleven concentrations. IC50 values were derived by non-linear regression analysis.

GSK3β = GSK3β (Homo sapiens, UniProt P49841); assay: GSK3β kinase assay (Caliper LabChip3000 mobility shift, fluoresceinated peptide substrate); assay type: biochemical
[1] = 250 pM enzyme, 20 uM ATP, 1.5 uM peptide, 20 hours room temperature, first value of cell GSK3β/GSK3α, read-out: GSK3β (nM), IC50

Sequence of GSK3β (P49841 whole entry, species assumed): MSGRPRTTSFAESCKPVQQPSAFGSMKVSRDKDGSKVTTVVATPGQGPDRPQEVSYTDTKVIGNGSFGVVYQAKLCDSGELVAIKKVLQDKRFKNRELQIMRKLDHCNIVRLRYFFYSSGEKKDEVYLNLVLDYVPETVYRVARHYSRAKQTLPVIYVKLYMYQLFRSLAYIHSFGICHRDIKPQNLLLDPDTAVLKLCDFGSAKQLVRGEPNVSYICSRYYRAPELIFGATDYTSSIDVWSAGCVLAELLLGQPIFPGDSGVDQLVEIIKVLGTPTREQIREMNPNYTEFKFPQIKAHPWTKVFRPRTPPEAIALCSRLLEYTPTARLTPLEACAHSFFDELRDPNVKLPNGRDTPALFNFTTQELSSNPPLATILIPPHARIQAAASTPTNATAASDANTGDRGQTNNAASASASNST
Sequence of GSK3α (P49840 whole entry, species assumed): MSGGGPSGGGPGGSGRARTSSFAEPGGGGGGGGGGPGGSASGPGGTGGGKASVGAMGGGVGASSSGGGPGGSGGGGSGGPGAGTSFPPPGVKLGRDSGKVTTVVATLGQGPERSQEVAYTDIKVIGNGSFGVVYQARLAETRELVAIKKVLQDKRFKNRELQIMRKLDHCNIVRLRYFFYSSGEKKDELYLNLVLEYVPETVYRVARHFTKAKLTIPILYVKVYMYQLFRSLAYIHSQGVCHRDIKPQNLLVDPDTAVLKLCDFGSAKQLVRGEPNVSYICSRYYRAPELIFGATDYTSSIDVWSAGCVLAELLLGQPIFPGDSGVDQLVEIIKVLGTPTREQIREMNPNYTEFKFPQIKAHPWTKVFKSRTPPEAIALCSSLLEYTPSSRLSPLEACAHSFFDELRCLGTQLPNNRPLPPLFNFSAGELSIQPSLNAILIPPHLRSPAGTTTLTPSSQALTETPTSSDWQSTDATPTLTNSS

Row | Compound | IC50 (pTau) [µM] | IC50 (GSK3α) [µM] | IC50 (GSK3β) [nM] | IC50 (GSK3β; [1]) [nM]
1 | CN1CCC(Nc2nccc(C(=O)Nc3cnccc3OCC(F)(F)F)n2)CC1 [Example 142, 2-((1-Methylpiperidin-4-yl)amino)-N-(4-(2,2,2-trifluoroethoxy)pyridin-3-yl)pyrimidine-4-carboxamide] | 1 | 0.012 | 14 | –
2 | CC(Nc1nccc(C(=O)Nc2cnccc2OCC(F)(F)F)n1)C12CC3CC(CC(C3)C1)C2 (stereo not drawn) [Example 143, 2-((1-(Adamantan-1-yl)ethyl)amino)-N-(4-(2,2,2-trifluoroethoxy)pyridin-3-yl)pyrimidine-4-carboxamide] | 4.9 | 0.073 | – | 33
3 | O=C(Nc1cnccc1OCC(F)(F)F)c1ccnc(NCc2cc(C(F)(F)F)cc(C(F)(F)F)c2)n1 [Example 144, 2-((3,5-Bis(trifluoromethyl)benzyl)amino)-N-(4-(2,2,2-trifluoroethoxy)pyridin-3-yl)pyrimidine-4-carboxamide] | 10 | 0.2 | – | 210
4 | CN1C(C)(C)CC(Nc2nccc(C(=O)Nc3cnccc3OCC(F)(F)F)n2)CC1(C)C [Example 145, 2-((1,2,2,6,6-Pentamethylpiperidin-4-yl)amino)-N-(4-(2,2,2-trifluoroethoxy)pyridin-3-yl)pyrimidine-4-carboxamide] | 10 | 0.46 | – | 250
5 | O=C(Nc1cnccc1-c1ccccc1)c1ccnc(NCC2CC2)n1 [Example 147, 2-((Cyclopropylmethyl)amino)-N-(4-phenylpyridin-3-yl)pyrimidine-4-carboxamide] | 0.02 | 0.00014 | – | 0.14
6 | O=C(Nc1cnccc1-c1ccc(F)cc1)c1ccnc(NC2CCCC2)n1 [Example 148, 2-(Cyclopentylamino)-N-(4-(4-fluorophenyl)pyridin-3-yl)pyrimidine-4-carboxamide] | 0.051 | 0.0003 | – | 0.35
7 | O=C(Nc1cnccc1-c1ccc(F)cc1F)c1ccnc(Nc2ccc3ccccc3c2)n1 [Example 149, N-(4-(2,4-Difluorophenyl)pyridin-3-yl)-2-(naphthalen-2-ylamino)pyrimidine-4-carboxamide] | 0.11 | 0.00036 | – | 0.65
8 | O=C(Nc1cnccc1-c1ccc(F)cc1)c1ccnc(NC2CCCCC2)n1 [Example 150, 2-(Cyclohexylamino)-N-(4-(4-fluorophenyl)pyridin-3-yl)pyrimidine-4-carboxamide] | 0.12 | 0.00057 | – | 0.66
9 | O=C(Nc1cnccc1-c1ccc(F)cc1F)c1ccnc(Nc2ccccc2)n1 [Example 151, N-(4-(2,4-Difluorophenyl)pyridin-3-yl)-2-(phenylamino)pyrimidine-4-carboxamide] | 0.044 | 0.00032 | – | 0.67
10 | O=C(Nc1cnccc1-c1ccc(F)cc1)c1ccnc(NC2CC2)n1 [Example 153, 2-(Cyclopropylamino)-N-(4-(4-fluorophenyl)pyridin-3-yl)pyrimidine-4-carboxamide] | 0.055 | 0.00065 | – | 0.82
11 | O=C(Nc1cnccc1-c1ccccc1F)c1ccnc(Nc2ccc3ccccc3c2)n1 [Example 154, N-(4-(2-Fluorophenyl)pyridin-3-yl)-2-(naphthalen-2-ylamino)pyrimidine-4-carboxamide] | 0.1 | 0.0007 | – | 1.4
12 | O=C(Nc1cnccc1-c1ccc(F)cc1F)c1ccnc(Nc2ccc(F)cc2F)n1 [Example 155] | 10 | 0.00097 | – | 1.5
13 | O=C(Nc1cnccc1-c1ccccc1)c1ccnc(NC2CCCCC2)n1 [Example 156, 2-(Cyclohexylamino)-N-(4-phenylpyridin-3-yl)pyrimidine-4-carboxamide] | 0.35 | 0.0013 | 2.1 | –
14 | CC(Nc1nccc(C(=O)Nc2cnccc2-c2ccc(F)cc2)n1)C(C)(C)C (stereo not drawn) [Example 157, 2-((3,3-Dimethylbutan-2-yl)amino)-N-(4-(4-fluorophenyl)pyridin-3-yl)pyrimidine-4-carboxamide] | 0.41 | 0.00072 | – | 2.2
15 | CNc1nccc(C(=O)Nc2cnccc2-c2ccc(F)cc2F)n1 [Example 158, N-(4-(2,4-Difluorophenyl)pyridin-3-yl)-2-(methylamino)pyrimidine-4-carboxamide] | 0.096 | 0.0019 | – | 2.4
16 | O=C(Nc1cnccc1-c1ccccc1)c1ccnc(Nc2cnn(-c3cc(F)ccc3F)c2)n1 [Example 159, 2-((1-(2,5-Difluorophenyl)-1H-pyrazol-4-yl)amino)-N-(4-phenylpyridin-3-yl)pyrimidine-4-carboxamide] | 0.39 | 0.0019 | – | 7.2
17 | CN1CCC(Nc2nccc(C(=O)Nc3cnccc3-c3ccccc3F)n2)CC1 [Example 162, N-(4-(2-Fluorophenyl)pyridin-3-yl)-2-((1-methylpiperidin-4-yl)amino)pyrimidine-4-carboxamide] | 2.2 | 0.039 | – | 32
